# Results reported in patent US20210246505A1, “COMPOSITIONS & METHODS FOR MONITORING DNA REPAIR” (MEMORIAL SLOAN KETTERING CANCER CENTER, priority 2018, published 2021).
# Key:
# Assay type in all cases: cell-based, human
# HEK293T cells = test: DSBR-seq of a Cas9 break at the AAVS1 locus, HEK293T cells
# Excerpt: In this Example, transfection of the pX330 plasmid, containing the Cas9 and guide RNA (gRNA) expression cassettes to the AAVS1 safe locus, is used. Genomic DNA (gDNA) is collected 3 days post-transfection. To asses—DNA repair by HR, a donor template containing three substitutions around the protospacer adjacent motif (PAM) which limits cut-recut cycles is transfected also. A 500 bp amplicon surrounding the break is used for rapid measurement of DSBR errors via the widely used T7 endonuclease I assay. A 201 bp amplicon surrounding the cut site, but outside of the HR template is amplified, purified via E-gel electrophoresis system, converted into Illumina sequencing libraries, quantified via qPCR, and then sequenced at 200,000× read depth using paired end 150 bp (PE150) Mi-Seq. Unique, nonsingleton reads (occurring more than once) are aligned to the reference sequence using pairwise alignment (for example using Python). The indels and substitutions are cataloged relative to the break site and microhomology (MH) is determined (for example using an internally developed and validated algorithm, see FIG. 8). The reads are categorized as consequences of NHEJ (≤5 bp deletion) or MMEJ (>5 bp deletion with >2 bp MH). The donor template DNA contains key substitutions—thereby providing a readout of HR. These experiments are also performed in cells that are isogenic knockout controls of key NHEJ, MMEJ and HR components and using pharmacologic controls in which DNA-PKcs, RAD51, and PARP are inhibited […]. By comparing the experimental reads against those obtained from the knockout controls and/or pharmacologic controls, the specific reads dependent on each pathway were discovered. (FIG. 1). Thus, these methods involve empirically-determined deletion profiles, derived from known controls deficient in each pathway, as signatures to clearly separate and quantify DSBR events occurring by HR, NHEJ and MMEJ. The single double strand break allows for direct analysis of pathway choice in a native genomic location with a blunt-ended DSB. Because both cell cycle dependent pathways (MMEJ and […]) are measured in the same experiment, there is an effective built-in control for confounding cell cycle effects on the use of these pathways. The AAVS1 genomic location was chosen due to its characterization as a safe site of integration without any known phenotypic effects. Transfection of the pX330 plasmid, containing the Cas9 and gRNA expression cassettes, is performed by nucleofection or liposome-based techniques. To detect DNA repair by homologous recombination (HR), a donor template is used containing three substitutions, one on the gRNA side of the break and two on the other side of the break, destroying the protospacer adjacent motif (PAM) and thereby limiting cut-recut cycles. A 500 bp amplicon surrounding the break is used for rapid measurement of DSBR errors via the widely used T7 endonuclease I assay. A 201 bp amplicon surrounding the cut site, but outside of the HR template is amplified, purified via E-gel electrophoresis system, converted into Illumina sequencing libraries, quantified via qPCR, and then sequenced at 200,000× read depth. Paired end 150 bp (PE150) reads are obtained, affording a central 100 bp region of high sequence fidelity adjacent to the cut site. The PE150 reads are merged using PEAR and then condensed into a set of unique reads. Unique reads that only occur once are discarded, as they are likely low-quality reads due to sequencing error. These unique, nonsingleton reads are aligned to the reference sequence using pairwise alignment through Python. The indels and substitutions are cataloged relative to the breaksite. […] The profile of deletion sizes and extent of microhomology differs between break sites, likely owing to site dependent availability of microhomology. We utilized the DNA-PKcs inhibitor NU7441 to measure NHEJ inhibition. […]
# HAP1 cells = test: DSBR-seq of a Cas9 break at the AAVS1 locus, HAP1 cells
# Excerpt: (§1) In this Example, transfection of the pX330 plasmid, containing the Cas9 and guide RNA (gRNA) expression cassettes to the AAVS1 safe locus, is used. Genomic DNA (gDNA) is collected 3 days post-transfection. To asses—DNA repair by HR, a donor template containing three substitutions around the protospacer adjacent motif (PAM) which limits cut-recut cycles is transfected also. A 500 bp amplicon surrounding the break is used for rapid measurement of DSBR errors via the widely used T7 endonuclease I assay. A 201 bp amplicon surrounding the cut site, but outside of the HR template is amplified, purified via E-gel electrophoresis system, converted into Illumina sequencing libraries, quantified via qPCR, and then sequenced at 200,000× read depth using paired end 150 bp (PE150) Mi-Seq. Unique, nonsingleton reads (occurring more than once) are aligned to the reference sequence using pairwise alignment (for example using Python). The indels and substitutions are cataloged relative to the break site and microhomology (MH) is determined (for example using an internally developed and validated algorithm, see FIG. 8). The reads are categorized as consequences of NHEJ (≤5 bp deletion) or MMEJ (>5 bp deletion with >2 bp MH). The donor template DNA contains key substitutions—thereby providing a readout of HR. […] The PE150 reads are merged using PEAR and then condensed into a set of unique reads. […]
# [1] = tested on: HCC1937 BRCA1 deficient cell line; test: DSBR-seq of a Cas9 break at the AAVS1 locus, HCC1937 BRCA1 deficient cells; conditions: with or without inhibitor
# Excerpt: as §1
SMILES,12 base pair deletion with 5 bp of microhomology read (HEK293T cells; 293T cells),specific 1 bp deletion read (HEK293T cells; 293T cells),HR usage (HEK293T cells; FIG. 1I),MMEJ usage (HEK293T cells; FIG. 1I),NHEJ usage (HEK293T cells; FIG. 1I),"decrease of the amplitude of the deletion peak (HEK293T cells; HEK293T cells, DSB at position 120 of amplicon)","frequency of HR (donor substitution) peaks (HEK293T cells; HEK293T cells, donor template)","width of the deletion peak (HEK293T cells; HEK293T cells, reflects use of MMEJ)",12 base pair deletion with 5 bp of microhomology read (HAP1 cells; HAP1 cells),HR observed [1],increase of the frequency of introduced errors overall (HAP1 cells; G1 arrest by the drug)
O=c1cc(N2CCOCC2)oc2c(-c3cccc4c3sc3ccccc34)cccc12 [NU7441],enhanced,suppressed,increases,increases,suppresses,more than 90%,increased in frequency,increases,enhanced,no HR is observed,
CC(=O)c1c(C)c2cnc(Nc3ccc(N4CCNCC4)cn3)nc2n(C2CCCC2)c1=O [palbociclib],,,,,,,,,,,~4 fold
